Assay results taken from patent US20060069132A1, “Azolecarboxamide herbicides” (priority 2004, published 2006).

Key:
barnyardgrass [1] = assay: Test B pre-/postemergence herbicide test; format: in vivo, Echinochloa crus-galli; details: for Barnyardgrass plant response rating: postemergence
Method in brief: (§1)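 Plants compared with untreated controls 13–15 days post-treatment and given a visual 0–100 injury score. Applications: preemergence to seeds; postemergence at 1- to 4-leaf (2–18 cm); paddy species flooded, 2-leaf stage. Vehicle non-phytotoxic, surfactant included.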

Surinam grass = assay: Test B pre-/postemergence herbicide test; format: in vivo, Urochloa decumbens; details: for Surinam Grass plant response rating: postemergence
Method in brief: (§2)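 Herbicidal effect was judged by eye on a 0–100 scale after plants stood 13 to 15 days in the greenhouse following pre- or postemergence treatment with surfactant-containing formulations.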

cocklebur = assay: Test B pre-/postemergence herbicide test; format: in vivo, Xanthium strumarium; details: for Cocklebur plant response rating: postemergence
Method in brief: as §1

corn = assay: Test B pre-/postemergence herbicide test; format: in vivo, Zea mays; details: for Corn plant response rating: postemergence
Method in brief: as §2

large crabgrass = assay: Test B pre-/postemergence herbicide test; format: in vivo, Digitaria sanguinalis; details: for Crabgrass, Large plant response rating: postemergence
Method in brief: as §2

giant foxtail = assay: Test B pre-/postemergence herbicide test; format: in vivo, Setaria faberi; details: for Foxtail, Giant plant response rating: postemergence
Method in brief: as §2

lambsquarters = assay: Test B pre-/postemergence herbicide test; format: in vivo, Chenopodium album; details: for Lambsquarters plant response rating: postemergence
Method in brief: as §2

morningglory = assay: Test B pre-/postemergence herbicide test; format: in vivo, Ipomoea coccinea; details: for Morningglory plant response rating: postemergence
Method in brief: as §1

pigweed = assay: Test B pre-/postemergence herbicide test; format: in vivo, Amaranthus retroflexus; details: for Pigweed plant response rating: postemergence
Method in brief: as §2

rice [2] = assay: Test B pre-/postemergence herbicide test; format: in vivo, Oryza sativa; details: 0 = no effect, 100 = complete control, preemergence
Method in brief: as §2

velvetleaf = assay: Test B pre-/postemergence herbicide test; format: in vivo, Abutilon theophrasti; details: for Velvetleaf plant response rating: postemergence
Method in brief: as §2

blackgrass = assay: Test B postemergence herbicide test; format: in vivo, Alopecurus myosuroides; details: postemergence
Method in brief: (§3)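 Formulated test chemicals went onto postemergence plants measuring 2 to 18 cm, at one to four leaves. For the paddy assay, species had reached two leaves. Scoring took place 13–15 days later by eye, relative to untreated plants, using 0 for no effect up to 100 for full control.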

wheat = assay: Test B postemergence herbicide test; format: in vivo, Triticum aestivum; set-up: key to Wheat plant response rating: 0 = no effect, 100 = complete control; details: postemergence
Method in brief: as §3

wild oat = assay: Test B postemergence herbicide test; format: in vivo, Avena fatua; details: postemergence
Method in brief: as §3

rice [3] = assay: Test B flooded paddy test; format: in vivo, Oryza sativa; details: 1000 g ai/ha, scale 0 to 100 (0 no effect, 100 complete control)
Method in brief: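 Treated at 2-leaf (paddy) or 1–4-leaf, 2–18 cm (postemergence); greenhouse 13–15 d; visual score vs control, 0 none to 100 complete control; dash = not tested.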

[4] = system: small flower umbrella sedge; assay: Test B flooded paddy test; format: in vivo, Cyperus difformis; details: 1000 g ai/ha, scale 0 to 100 (0 no effect, 100 complete control)
Method in brief: as §3

ducksalad [5] = assay: Test B flooded paddy test; format: in vivo, Heteranthera limosa; details: 1000 g ai/ha, scale 0 to 100 (0 no effect, 100 complete control)
Method in brief: as §3

barnyardgrass [6] = assay: Test B flooded paddy test; format: in vivo, Echinochloa crus-galli; details: 1000 g ai/ha, scale 0 to 100 (0 no effect, 100 complete control)
Method in brief: as §3

rice [7] = assay: Test C flooded paddy test; format: in vivo, Oryza sativa
Method in brief: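 Injury scored visually against controls on a 0 (no effect) to 100 (complete control) scale, 12 to 14 days after treatment in greenhouse. Flooded paddy plants treated at 2-leaf stage; postemergence plants at 1- to 4-leaf stage, 2 to 18 cm tall.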

[8] = system: smallflower umbrella sedge; assay: Test C flooded paddy test; format: in vivo, Cyperus difformis
ducksalad [9] = assay: Test C flooded paddy test; format: in vivo, Heteranthera limosa
barnyardgrass [10] = assay: Test C flooded paddy test; format: in vivo, Echinochloa crus-galli
Method in brief: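 Greenhouse test with a 12–14 day hold after application and visual comparison with controls. Emerged plants were 1- to 4-leaf stage (2–18 cm) when sprayed postemergence, and the paddy barnyardgrass was at 2 leaves under flooded conditions. 100 = complete control.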

[11] = 125 g ai/ha, 0 = no effect, 100 = complete control, preemergence
[12] = 125 g ai/ha, visual rating, scale 0 (no effect) to 100 (complete control)
[13] = 500 g ai/ha, visual rating, 0 = no effect, 100 = complete control, preemergence
[14] = 500 g ai/ha, scale 0 to 100, 0 is no effect, 100 is complete control
[15] = 125 g ai/ha, scale 0 to 100 (0 no effect, 100 complete control)
[16] = 250 g ai/ha, scale of 0 to 100, 0 is no effect, 100 is complete control
[17] = 500 g ai/ha, visual rating after 12 to 14 days, scale 0 to 100 (0 no effect, 100 complete control)

C#CCNC(=O)c1ccc(F)c(NC(=O)c2cc(C3(C)CC3)nn2CC)c1 [Compound 302]
Barnyardgrass plant response rating (0 to 100 scale) (barnyardgrass [1]; [11]): 0 | Barnyardgrass plant response rating (barnyardgrass [1]; [12]): 10 | Plant response rating, Barnyardgrass (barnyardgrass [1]; [13]): 60 | Barnyardgrass plant response rating (barnyardgrass [1]; [14]): 40 | Surinam Grass plant response rating (0 to 100 scale) (Surinam grass; [11]): 10 | Surinam Grass plant response rating (Surinam grass; [12]): 0 | Plant response rating, Surinam Grass (Surinam grass; [13]): 30 | Surinam Grass plant response rating (Surinam grass; [14]): 10 | Cocklebur plant response rating (0 to 100 scale) (cocklebur; [11]): 0 | Cocklebur plant response rating (cocklebur; [12]): 10 | Plant response rating, Cocklebur (cocklebur; [13]): 0 | Cocklebur plant response rating (cocklebur; [14]): 10 | Corn plant response rating (0 to 100 scale) (corn; [11]): 0 | Corn plant response rating (corn; [12]): 10 | Plant response rating, Corn (corn; [13]): 10 | Corn plant response rating (corn; [14]): 50 | Crabgrass, Large plant response rating (0 to 100 scale) (large crabgrass; [11]): 70 | Crabgrass, Large plant response rating (large crabgrass; [12]): 0 | Plant response rating, Crabgrass, Large (large crabgrass; [13]): 100 | Crabgrass, Large plant response rating (large crabgrass; [14]): 10 | Foxtail, Giant plant response rating (0 to 100 scale) (giant foxtail; [11]): 0 | Foxtail, Giant plant response rating (giant foxtail; [12]): 0 | Plant response rating, Foxtail, Giant (giant foxtail; [13]): 30 | Foxtail, Giant plant response rating (giant foxtail; [14]): 20 | Lambsquarters plant response rating (0 to 100 scale) (lambsquarters; [11]): 0 | Lambsquarters plant response rating (lambsquarters; [12]): 60 | Plant response rating, Lambsquarters (lambsquarters; [13]): 100 | Lambsquarters plant response rating (lambsquarters; [14]): 70 | Morningglory plant response rating (0 to 100 scale) (morningglory; [11]): 0 | Morningglory plant response rating (morningglory; [12]): 30 | Plant response rating, Morningglory (morningglory; [13]): 10 | Morningglory plant response rating (morningglory; [14]): 60 | Pigweed plant response rating (0 to 100 scale) (pigweed; [11]): 100 | Pigweed plant response rating (pigweed; [12]): 80 | Plant response rating, Pigweed (pigweed; [13]): 100 | Pigweed plant response rating (pigweed; [14]): 90 | Rice plant response rating (0 to 100 scale) (rice [2]; 125 g ai/ha): 0 | Plant response rating, Rice (rice [2]; 500 g ai/ha, visual rating): 10 | Velvetleaf plant response rating (velvetleaf; [12]): 10 | Plant response rating, Velvetleaf (velvetleaf; [13]): 80 | Velvetleaf plant response rating (velvetleaf; [14]): 10 | Blackgrass plant response rating (blackgrass; [12]): 10 | Blackgrass plant response rating (blackgrass; [14]): 20 | Wheat plant response rating (wheat; [12]): 0 | Wheat plant response rating (wheat; [14]): 10 | Oat, Wild plant response rating (wild oat; [12]): 0 | Oat, Wild plant response rating (wild oat; [14]): 10 | Rice plant response rating (rice [3]): 70 | Sedge, Umbrella plant response rating [4]: 80 | Ducksalad plant response rating (ducksalad [5]): 90 | Barnyardgrass plant response rating (barnyardgrass [6]): 70 | Rice plant response rating (rice [7]; 62 g ai/ha, scale 0 to 100): 0 | Rice plant response rating (rice [7]; [15]): 0 | Rice plant response rating (rice [7]; [16]): 0 | Plant response rating, Rice (rice [7]; [17]): 55 | Sedge, Umbrella plant response rating ([8]; 62 g ai/ha, scale 0 to 100): 15 | Sedge, Umbrella plant response rating [8, 15]: 50 | Sedge, Umbrella plant response rating [8, 16]: 75 | Plant response rating, Sedge, Umbrella [8, 17]: 85 | Ducksalad plant response rating (ducksalad [9]; 62 g ai/ha, scale 0 to 100): 0 | Ducksalad plant response rating (ducksalad [9]; [15]): 25 | Ducksalad plant response rating (ducksalad [9]; [16]): 30 | Plant response rating, Ducksalad (ducksalad [9]; [17]): 85 | Barnyardgrass plant response rating (barnyardgrass [10]; 62 g ai/ha, scale 0 to 100 (0 no effect, 100 complete control)): 0 | Barnyardgrass plant response rating (barnyardgrass [10]; [15]): 0 | Barnyardgrass plant response rating (barnyardgrass [10]; [16]): 10 | Plant response rating, Barnyardgrass (barnyardgrass [10]; [17]): 35
